Assay results taken from US20050119284A1, “ANTIVIRAL AGENTS AND METHODS OF USE” (priority 2003, published 2005).
“And” between values parts separate entries of the source, which are not always exact repeats. Equal values may be shown once. “Also recorded” adds a separate entry of the source.

Columns and labels:
[1] = test system: MDBK cells
[2] = test system: bovine viral diarrhea virus (BVDV); assay: BVDV plaque assay in MDBK cells; type: cell-based; conditions: for Antiviral effect on BVDV in the presence of thymidine (in words): 1 mM thymidine, cytotoxicity blocked; for Effect on viral yield: MDBK cells with BVDV, without thymidine; for Antiviral effect on BVDV replication (in words): increasing concentrations; for Decrease in BVDV replication / viral titers: in the presence of 1 mM thymidine; for Pfu/microL Avg: average of three; for Pfu/microL: individual replicates
[3] = test system: MDBK cells; assay: Host cell growth / cytotoxicity, mock-infected MDBK cells counted by flow cytometry; conditions: for Decrease in cell growth: confluent MDBK cells, concentrations used for the AZA/MPA comparison; for Cellular cytotoxicity / cell viability at antiviral concentrations: MDBK cells, concentrations assayed
[4] = test system: HCV 1 bN replicon; conditions: 100 uM, 1 mM thymidine, 72 hours, Huh7
[5] = given to mice; cited from earlier work
[6] = test system: HCV 1 bN replicon; conditions: two recent studies; cited from earlier work

SMILES: Sc1ncnc2nc[nH]c12 [6-mercaptopurine]
- Effect on cell growth [1]: decreased
- Effect on cell growth in the presence of thymidine [1]: neither azathioprine metabolite had an appreciable effect
- Antiviral effect on BVDV in the presence of thymidine (in words) [2]: significantly reduced; also recorded: still possessed this antiviral effect
- Effect on viral yield [2]: decreased
- Antiviral effect on BVDV replication (in words) ([2]; MDBK cells, listed as 6MP): sensitive; also recorded: specifically inhibited
- Decrease in BVDV replication / viral titers [2]: 2 log

SMILES: CSc1ncnc2nc[nH]c12 [6-methyl mercaptopurine]
- Effect on cell growth [1]: no effect
- Effect on viral yield [2]: no effect

SMILES: Nc1nc2nc[nH]c2c(=S)[nH]1 [6-thioguanine]
- Effect on cell growth [1]: decreased
- Effect on cell growth in the presence of thymidine [1]: neither azathioprine metabolite had an appreciable effect
- Antiviral effect on BVDV in the presence of thymidine (in words) [2]: did not
- Effect on viral yield [2]: decreased
- Antiviral effect on BVDV replication (in words) ([2]; MDBK cells): no antiviral affect
- Decrease in BVDV replication / viral titers [2]: did not

SMILES: OC[C@H]1O[C@@H](n2cnc3c(S)ncnc32)[C@H](O)[C@@H]1O [6TI, 6 thioinosine]
- Antiviral properties relative to 6MP ([2]; BVDV replication, FIG. 11): 2-3 fold

SMILES: Cn1cnc([N+](=O)[O-])c1Sc1ncnc2nc[nH]c12 [AZA, azathioprine]
- Decrease in cell growth [3]: ~50%
- Antiviral effect on BVDV in the presence of thymidine (in words) [2]: the majority of the antiviral effect was maintained; also recorded: still occurred
- Inhibition of viral replication relative to inhibition of cell growth ([2]; MDBK cells, increasing AZA, 72 hours): 10-100 fold
- Antiviral effect on BVDV replication (in words) ([2]; MDBK cells): sensitive; also recorded: specifically inhibited
- Decrease of BVDV replication relative to MPA ([2]; at doses that achieved similar cytoxicity): 10 fold
- Virus produced per living cell, compared to cells grown in MPA ([2]; confluent MDBK cells, concentrations causing similar decrease in cell growth): 12%
- Amount of BVDV virus generated, AZA versus MPA ([2]; confluent MDBK cells, doses allowing similar cellular growth, 72 hours): significantly less
- Decrease in BVDV replication / viral titers [2]: two
- Amount of replicon compared to no drug [4]: ~50%
- Increase in number of cycles to reach critical threshold (Ct) compared to no drug [4]: ~1 cycle

SMILES: COc1c(C)c2c(c(O)c1C/C=C(\C)CCC(=O)O)C(=O)OC2 [MPA, mycophenolate]
- Effect on cell growth [1]: killed all the cells
- Decrease in cell growth [3]: ~50%

SMILES: CC(=O)/C=C\Sc1ncnc2[nH]cnc12 [cis-AVTP, cis-6-(2-acetylvinylthio) purine]
- Cellular cytotoxicity / cell viability at antiviral concentrations [3]: without cellular cytoxicity
- Cellular cytotoxicity / cell viability at antiviral concentrations ([3]; listed as cisAVTP): did not affect overall cell viability
- Antiviral effect on BVDV in the presence of thymidine (in words) [2]: still occurs
- Pfu/microL Avg ([2]; 10 microM): 2 Pfu/microL
- Pfu/microL ([2]; 10 microM, listed as cis): 1.4 Pfu/microL and 2.5 Pfu/microL and 2.1 Pfu/microL
- Pfu/microL Avg ([2]; 100 microM): 0.35 Pfu/microL
- Pfu/microL ([2]; 100 microM, listed as cis): 0.34 Pfu/microL and 0.35 Pfu/microL and 0.36 Pfu/microL
- Antiviral effect on BVDV replication (in words) ([2]; MDBK cells): sensitive; also recorded: significant anti-viral activity
- Antiviral effect on BVDV replication (in words) ([2]; MDBK cells, listed as cisAVTP): able to inhibit
- Levels of 6MP in the liver and gastrointestinal tract [5]: high levels
- Side effects [5]: no significant side effects

SMILES: NC(=O)c1ncn([C@@H]2O[C@H](CO)[C@@H](O)[C@H]2O)n1 [ribavirin]
- Antiviral (Hepatitis GB) or anti-HCV replicon activity [6]: weak

SMILES: CC(=O)/C=C/Sc1ncnc2[nH]cnc12 [trans-AVTP, trans-6-(2-acetylvinylthio) purine]
- Antiviral activity compared between isomers ([2]; 10 uM): less antiviral than cis-AVTP
- Pfu/microL Avg ([2]; 10 microM): 65.67 Pfu/microL
- Pfu/microL ([2]; 10 microM): 53 Pfu/microL and 73 Pfu/microL and 71 Pfu/microL
- Pfu/microL Avg ([2]; 100 microM): 0.33 Pfu/microL
- Pfu/microL ([2]; 100 microM): 0.32 Pfu/microL and 0.38 Pfu/microL and 0.29 Pfu/microL
